Experimental data published in ChEMBL document CHEMBL1132048, “Optimisation of the P2 pharmacophore in a series of thrombin inhibitors: ion-dipole interactions with lysine 60G” (Bioorg Med Chem Lett, 1999).

Biological target: Prothrombin (Homo sapiens, UniProt P00734)
Assay: Inhibition of human thrombin (in vitro)

SMILES | Ki [nM]
CC(=O)NCCC1CCN(C(=O)[C@H](Cc2nc3ccccc3s2)NS(=O)(=O)c2cccc3c2NCC(C)(C)C3)CC1 | 654
CC1(C)CNc2c(cccc2S(=O)(=O)N[C@@H](Cc2nc3ccccc3s2)C(=O)N2CCC(CCCl)CC2)C1 | 93
CC1(C)CNc2c(cccc2S(=O)(=O)N[C@@H](Cc2nc3ccccc3s2)C(=O)N2CCN(CCO)CC2)C1 | 350
CC1(C)CNc2c(cccc2S(=O)(=O)N[C@@H](Cc2nc3ccccc3s2)C(=O)N2CCC(CCC(=O)O)CC2)C1 | 7830
CN(C)C(=O)NCCC1CCN(C(=O)[C@H](Cc2nc3ccccc3s2)NS(=O)(=O)c2cccc3c2NCC(C)(C)C3)CC1 | 1000
CCC1CCN(C(=O)[C@H](Cc2nc3ccccc3s2)NS(=O)(=O)c2cccc3c2NCC(C)(C)C3)CC1 | 240
CC1(C)CNc2c(cccc2S(=O)(=O)N[C@@H](Cc2nc3ccccc3s2)C(=O)N2CCC(CCN)CC2)C1 | 1180
CNS(=O)(=O)NCCC1CCN(C(=O)[C@H](Cc2nc3ccccc3s2)NS(=O)(=O)c2cccc3c2NCC(C)(C)C3)CC1 | 119
CCCCNC(=O)NCCC1CCN(C(=O)[C@H](Cc2nc3ccccc3s2)NS(=O)(=O)c2cccc3c2NCC(C)(C)C3)CC1 | 182
CN(C)CCC1CCN(C(=O)[C@H](Cc2nc3ccccc3s2)NS(=O)(=O)c2cccc3c2NCC(C)(C)C3)CC1 | 38300

More lines, now with the values ahead:

Ki [nM] | SMILES
79 | CC1(C)CNc2c(cccc2S(=O)(=O)N[C@@H](Cc2nc3ccccc3s2)C(=O)N2CCC(CCO)CC2)C1
65 | CCNC(=O)NCCC1CCN(C(=O)[C@H](Cc2nc3ccccc3s2)NS(=O)(=O)c2cccc3c2NCC(C)(C)C3)CC1
56 | COC(=O)NCCC1CCN(C(=O)[C@H](Cc2nc3ccccc3s2)NS(=O)(=O)c2cccc3c2NCC(C)(C)C3)CC1
52 | CC1(C)CNc2c(cccc2S(=O)(=O)N[C@@H](Cc2nc3ccccc3s2)C(=O)N2CCC(CCNC(=O)OC(C)(C)C)CC2)C1
38 | CNC(=O)OCCC1CCN(C(=O)[C@H](Cc2nc3ccccc3s2)NS(=O)(=O)c2cccc3c2NCC(C)(C)C3)CC1
26 | CC1(C)CNc2c(cccc2S(=O)(=O)N[C@@H](Cc2nc3ccccc3s2)C(=O)N2CCC(CCF)CC2)C1
24 | CNC(=O)NCCC1CCN(C(=O)[C@H](Cc2nc3ccccc3s2)NS(=O)(=O)c2cccc3c2NCC(C)(C)C3)CC1

Tested on: not listed separately
Assay: pKa was determined
Type: physicochemical

SMILES | pKa
NCCCC[C@H](N)C(=O)O [LYSINE] | 10.2
